Experimental findings from publication PMC7997411, “Discovery and Optimization of Selective Inhibitors of Meprin α (Part II)” (Pharmaceuticals, 2021) are described below.

A value given as a limit tells only on which side of the number the result lay.

One data set deals with T1, MMP1 (Homo sapiens, UniProt P03956).
T1 construct: purchased R&D Systems 901-MP
T1 sequence (P03956 100-469): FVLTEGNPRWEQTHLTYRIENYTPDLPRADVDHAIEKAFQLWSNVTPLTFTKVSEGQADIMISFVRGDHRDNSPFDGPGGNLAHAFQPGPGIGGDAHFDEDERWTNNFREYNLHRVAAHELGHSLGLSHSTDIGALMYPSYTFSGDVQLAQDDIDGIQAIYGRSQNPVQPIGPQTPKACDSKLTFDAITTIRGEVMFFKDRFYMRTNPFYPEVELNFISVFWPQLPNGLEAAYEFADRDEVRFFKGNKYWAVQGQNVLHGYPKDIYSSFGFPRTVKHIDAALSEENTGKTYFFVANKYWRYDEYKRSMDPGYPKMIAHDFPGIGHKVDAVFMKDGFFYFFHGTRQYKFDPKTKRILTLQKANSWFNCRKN
The experiment in a line: MMP assay (fluorogenic substrate ES010). The format is biochemical. How it is done:
(§1) MMP-1, MMP-2, MMP-8, MMP-9, MMP-10, MMP-13, MMP-14, ADAM10, ADAM17 and Mca-KPLGL-Dpa-AR-NH2 fluorogenic peptide substrate were purchased from R&D Systems (cat # 901-MP, 902-MP, 908-MP, 911-MP, 910-MP, 511-MM, 918-MP, 936-AD, 930-ADB, and ES010, respectively). All common chemicals were purchased from Sigma. NFF449 was purchased from Tocris (cat# 1391) and actinonin was from Sigma-Aldrich, St. Louis, MO, USA (cat# 01809).
(§2) All assays followed the same general protocol. 5 µL of 2× enzyme solution (5 nM) in assay buffer (50 mM Tricine, 50 mM NaCl, 10 mM CaCl2, 0.05% Brij-35, pH 7.5) were added to solid-bottom black 384 plates (Nunc, cat# 264705). Next, test compounds and pharmacological controls were added to corresponding wells using a 384-pin tool device (V&P Scientific, San Diego). After 30 min incubation at RT, the reactions were started by addition of 5 µL of 2× solutions of MMP substrate (R&D Systems cat#: ES010, 20 µM). Reactions were incubated at RT for 1 h, after which the fluorescence was measured using the Synergy H4 multimode microplate reader (Biotek Instruments) (λexcitation = 324 nm, λemission = 390 nm). All compounds were tested in 10-point, 1:3 serial dilutions dose-response format starting with highest concentration of 100 µM. IC50 values were determined using non-linear regression analysis using the GraphPad Prism 8.0 suite of programs.

In the next data set the target is MMP3 (Homo sapiens, UniProt P08254). The experiment in a line: MMP assay (fluorogenic substrate ES010). The format is biochemical. How it is done:
as §2

A further data set concerns the target T2, MMP10 (Homo sapiens, UniProt P09238).
T2 construct: purchased R&D Systems 910-MP
The experiment in a line: MMP assay (fluorogenic substrate ES010). The format is biochemical. How it is done: as §1, §2

The subject of data set [1] is HEK293 (kidney) and BJ (skin fibroblasts) cells. Description: Cytotoxicity, CellTox Green assay. In kind it is cell-based. How it is done:
Figure 6 Characterization of SR24717 for effects on cell viability and cytotoxicity. (A) Effect of SR24717 on viability of WM266-4 (skin melanoma), HEK293 (kidney), and BJ (skin fibroblasts) cells. CellTiter Glo™ assay (Promega) was used after 72 h treatment. (B) Effect of SR24717 on viability of HEK293 (kidney) and BJ (skin fibroblasts) cells. The CellTox Green™ assay (Promega) was used. All experiments performed as 10-point 3-fold concentration-response curves in triplicate.

The test system of data set [2] is MMP-2, MMP-3, MMP-8, MMP-9, MMP-10, MMP-14, ADAM10, and ADAM17. Description: Selectivity panel of related metzincins. The following applies: all tested enzymes, Figure 4B. The format is biochemical. How it is done:
Both assays followed the same general protocol. 2.5 µL of 2× enzyme solution (20 nM) in assay buffer (10 mM HEPES, 0.001% Brij-35, pH 7.5) were added to solid bottom black 384 plates (Greiner, cat# 789075). Next, test compounds and pharmacological controls were added to corresponding wells using a 384-pin tool device (V&P Scientific, San Diego). After 30 min incubation at RT, the reactions were started by addition of 2.5 µL of 2× solutions of substrate (R&D Systems cat#: ES010, Mca-KPLGL-Dpa-AR-NH2, 20 µM). Reactions were incubated at RT for 2 h, after which the fluorescence was measured using a Perkin Elmer Viewlux multimode microplate imager (λexcitation = 324 nm, λemission = 393 nm). All compounds were tested in 10-point, 1:3 serial dilutions dose-response format starting with highest concentration of 100 µM. IC50 values were determined using non-linear regression analysis using the GraphPad Prism 8.0 suite of programs.
All assays followed the same general protocol. […] Reactions were incubated at RT for 1 h, after which the fluorescence was measured using the Synergy H4 multimode microplate reader (Biotek Instruments) (λexcitation = 324 nm, λemission = 390 nm). […] IC50 values were determined using non-linear regression analysis using the GraphPad Prism 8.0 suite of programs.

Chain of MMP3 (P08254 100-477, species assumed): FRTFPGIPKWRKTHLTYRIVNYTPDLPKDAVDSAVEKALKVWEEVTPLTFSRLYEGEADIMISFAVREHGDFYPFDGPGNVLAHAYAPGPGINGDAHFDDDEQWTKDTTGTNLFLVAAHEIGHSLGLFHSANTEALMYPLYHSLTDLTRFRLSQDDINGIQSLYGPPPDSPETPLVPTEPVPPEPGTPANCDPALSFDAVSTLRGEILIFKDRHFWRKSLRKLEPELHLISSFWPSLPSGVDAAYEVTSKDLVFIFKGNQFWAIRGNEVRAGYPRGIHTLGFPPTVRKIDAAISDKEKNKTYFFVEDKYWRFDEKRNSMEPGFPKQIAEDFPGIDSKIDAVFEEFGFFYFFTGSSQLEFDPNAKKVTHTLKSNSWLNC
T2 sequence (P09238 99-476): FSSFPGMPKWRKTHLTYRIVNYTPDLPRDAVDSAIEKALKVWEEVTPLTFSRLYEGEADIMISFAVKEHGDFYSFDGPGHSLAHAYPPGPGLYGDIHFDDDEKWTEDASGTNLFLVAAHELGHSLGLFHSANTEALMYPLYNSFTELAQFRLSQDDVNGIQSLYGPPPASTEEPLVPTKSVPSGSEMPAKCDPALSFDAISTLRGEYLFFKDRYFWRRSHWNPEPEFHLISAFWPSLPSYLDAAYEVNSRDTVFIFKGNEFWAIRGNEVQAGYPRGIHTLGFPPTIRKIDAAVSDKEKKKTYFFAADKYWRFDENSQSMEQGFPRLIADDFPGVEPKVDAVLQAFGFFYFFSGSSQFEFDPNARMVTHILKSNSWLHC

The IC50 is the concentration at which inhibition is half-maximal. For the molecule `CCCCC[C@H](CC(=O)NO)C(=O)N[C@H](C(=O)N1CCC[C@H]1CO)C(C)C` [Actinonin, actinonin, reference compound], on MMP1, the concentration for half-maximal inhibition (IC50) came out at 100 nM.

`COc1cc(OC)nc(SCc2nnc(SCC(=O)NO)n2-c2ccc(N(C)C)cc2)n1` [SR24717]: the IC50 (at MMP3; at MMP10; in data set [2]) was over 100 µM each time. Also, the “concentration at which cytotoxicity was observed” value in data set [1] was 100 µM.
